Assay results published in patent publication US10865208B2, “ATG7 inhibitors and the uses thereof” (Millennium Pharmaceuticals, Inc., priority 2016, dated 2020).

Target: recombinant human His-ATG7 enzyme (Homo sapiens (Human), UniProt O95352)
Assay: ATG7 Enzyme Assay (HTRF/FRET, ATG3-GST and Flag-Gabarap)
Format: biochemical
Conditions: for inhibition at 0.111 µM: Concentration 0.111 μM
In short: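 HTRF read-out after 2 h at 24° C, using Eu-cryptate anti-Flag and XL-APC anti-GST antibodies in an EDTA stop buffer. The preceding 105 min, 24° C reaction (pH 7.5) held 10 μM ATP, 5 nM each ATG3-GST and Flag-Gabarap, and 0.15 nM human His-ATG7. Values are IC50 or percent inhibition at one concentration.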

Chain of recombinant human His-ATG7 enzyme (O95352 whole entry): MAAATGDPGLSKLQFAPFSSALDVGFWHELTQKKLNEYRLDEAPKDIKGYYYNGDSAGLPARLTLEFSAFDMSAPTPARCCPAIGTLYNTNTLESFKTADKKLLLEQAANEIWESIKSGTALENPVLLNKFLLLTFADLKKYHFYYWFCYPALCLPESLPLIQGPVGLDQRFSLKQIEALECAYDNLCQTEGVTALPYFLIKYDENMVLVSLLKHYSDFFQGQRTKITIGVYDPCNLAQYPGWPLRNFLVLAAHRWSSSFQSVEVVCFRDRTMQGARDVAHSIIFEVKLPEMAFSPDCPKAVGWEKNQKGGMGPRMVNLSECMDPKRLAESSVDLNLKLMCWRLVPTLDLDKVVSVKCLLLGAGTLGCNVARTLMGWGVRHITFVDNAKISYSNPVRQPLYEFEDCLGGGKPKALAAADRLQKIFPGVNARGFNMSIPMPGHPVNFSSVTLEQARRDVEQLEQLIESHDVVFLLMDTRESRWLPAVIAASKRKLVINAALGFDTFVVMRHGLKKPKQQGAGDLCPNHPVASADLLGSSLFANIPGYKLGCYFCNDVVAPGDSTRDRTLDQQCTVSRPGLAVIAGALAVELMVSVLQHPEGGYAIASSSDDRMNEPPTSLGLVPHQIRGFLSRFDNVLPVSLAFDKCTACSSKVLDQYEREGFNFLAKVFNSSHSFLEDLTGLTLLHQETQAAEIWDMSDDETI

Row | Structure (SMILES) | IC50 [nM] | inhibition at 0.111 µM (read-out: Percent Inhibition) [%] | inhibition at 0.123 µM (Concentration 0.123 μM, read-out: Percent Inhibition) [%]
1 | Nc1ncnc2c1c(SC1CCC1)nn2[C@@H]1O[C@H](COS(N)(=O)=O)[C@@H](O)[C@@H]1F [Compound I-147, {(2R,3R,4S,5R)-5-[4-amino-3-(cyclobutylsulfanyl)-1H-pyrazolo[3,4-d]pyrimidin-1-yl]-4-fluoro-3-hydroxytetrahydrofuran-2-yl}methyl sulfamate] | < 20 | 89 | –
2 | Nc1ncnc2c1c(SCC1CCC1)nn2[C@@H]1O[C@H](COS(N)(=O)=O)[C@@H](O)[C@@H]1F [Compound I-148, [(2R,3R,4S,5R)-5-{4-amino-3-[(cyclobutylmethyl)sulfanyl]-1H-pyrazolo[3,4-d]pyrimidin-1-yl}-4-fluoro-3-hydroxytetrahydrofuran-2-yl]methyl sulfamate] | < 20 | 83 | –
3 | Nc1ncnc2c1c(Sc1ccncc1)nn2[C@@H]1O[C@H](COS(N)(=O)=O)[C@@H](O)[C@@H]1F [Compound I-150, {(2R,3R,4S,5R)-5-[4-amino-3-(pyridin-4-ylsulfanyl)-1H-pyrazolo[3,4-d]pyrimidin-1-yl]-4-fluoro-3-hydroxytetrahydrofuran-2-yl}methyl Sulfamate] | 100 to 500 | 46 | –
4 | Nc1ncnc2c1c(SCCO)nn2[C@@H]1O[C@H](COS(N)(=O)=O)[C@@H](O)[C@@H]1F [Compound I-151, [(2R,3R,4S,5R)-5-{4-amino-3-[(2-hydroxyethyl)sulfanyl]-1H-pyrazolo[3,4-d]pyrimidin-1-yl}-4-fluoro-3-hydroxytetrahydrofuran-2-yl]methyl Sulfamate] | – | 76 | –
5 | Cc1ccc(Sc2nn([C@@H]3O[C@H](COS(N)(=O)=O)[C@@H](O)[C@@H]3F)c3ncnc(N)c23)nc1 [Compound I-152, [(2R,3R,4S,5R)-5-{4-amino-3-[(5-methylpyridin-2-yl)sulfanyl]-1H-pyrazolo[3,4-d]pyrimidin-1-yl}-4-fluoro-3-hydroxytetrahydrofuran-2-yl]methyl sulfamate] | < 20 | 88 | –
6 | N#Cc1cccc(Sc2nn([C@@H]3O[C@H](COS(N)(=O)=O)[C@@H](O)[C@@H]3F)c3ncnc(N)c23)c1 [Compound I-153, [(2R,3R,4S,5R)-5-{4-amino-3-[(3-cyanophenyl)sulfanyl]-1H-pyrazolo[3,4-d]pyrimidin-1-yl}-4-fluoro-3-hydroxytetrahydrofuran-2-yl]methyl sulfamate] | 50 to 100 | 58 | –
7 | COCCSc1nn([C@@H]2O[C@H](COS(N)(=O)=O)[C@@H](O)[C@@H]2F)c2ncnc(N)c12 [Compound I-154, [(2R,3R,4S,5R)-5-{4-amino-3-[(2-methoxyethyl)sulfanyl]-1H-pyrazolo[3,4-d]pyrimidin-1-yl}-4-fluoro-3-hydroxytetrahydrofuran-2-yl]methyl sulfamate] | 50 to 100 | 64 | –
8 | Nc1ncnc2c1c(SCc1ccccc1)nn2[C@@H]1O[C@H](COS(N)(=O)=O)[C@@H](O)[C@@H]1F [Compound I-155, {(2R,3R,4S,5R)-5-[4-amino-3-(benzylsulfanyl)-1H-pyrazolo[3,4-d]pyrimidin-1-yl]-4-fluoro-3-hydroxytetrahydrofuran-2-yl}methyl sulfamate] | 20 to 50 | – | 75
9 | Nc1ncnc2c1c(Sc1nnc3ccccn13)nn2[C@@H]1O[C@H](COS(N)(=O)=O)[C@@H](O)[C@@H]1F [Compound I-156, {(2R,3R,4S,5R)-5-[4-amino-3-([1,2,4]triazolo[4,3-a]pyridin-3-ylsulfanyl)-1H-pyrazolo[3,4-d]pyrimidin-1-yl]-4-fluoro-3-hydroxytetrahydrofuran-2-yl}methyl sulfamate] | 100 to 500 | 30 | –
10 | Nc1ncnc2c1c(Sc1cccc(C(F)(F)F)c1)nn2[C@@H]1O[C@H](COS(N)(=O)=O)[C@@H](O)[C@@H]1F [Compound I-158, [(2R,3R,4S,5R)-5-(4-amino-3-{[3-(trifluoromethyl)phenyl]sulfanyl}-1H-pyrazolo[3,4-d]pyrimidin-1-yl)-4-fluoro-3-hydroxytetrahydrofuran-2-yl]methyl sulfamate] | 50 to 100 | 56 | –
11 | NC(=O)CSc1nn([C@H]2C[C@H](O)[C@@H](COS(N)(=O)=O)O2)c2ncnc(N)c12 [Compound I-159, [(2R,3S,5R)-5-{4-amino-3-[(2-amino-2-oxoethyl)sulfanyl]-1H-pyrazolo[3,4-d]pyrimidin-1-yl}-3-hydroxytetrahydrofuran-2-yl]methyl sulfamate] | 100 to 500 | 29 | –
12 | Nc1ncnc2c1c(Sc1ccc3c(c1)CCC3)nn2[C@H]1C[C@H](O)[C@@H](COS(N)(=O)=O)O1 [Compound I-160, {(2R,3S,5R)-5-[4-amino-3-(2,3-dihydro-1H-inden-5-ylsulfanyl)-1H-pyrazolo[3,4-d]pyrimidin-1-yl]-3-hydroxytetrahydrofuran-2-yl}methyl Sulfamate] | 50 to 100 | 62 | –
13 | Cc1ccc(Sc2nn([C@H]3C[C@H](O)[C@@H](COS(N)(=O)=O)O3)c3ncnc(N)c23)c(F)c1 [Compound I-161, [(2R,3S,5R)-5-{4-amino-3-[(2-fluoro-4-methylphenyl)sulfanyl]-1H-pyrazolo[3,4-d]pyrimidin-1-yl}-3-hydroxytetrahydrofuran-2-yl]methyl Sulfamate] | 50 to 100 | 59 | –
14 | Nc1ncnc2c1c(SCCO)nn2[C@H]1C[C@H](O)[C@@H](COS(N)(=O)=O)O1 [Compound I-162, [(2R,3S,5R)-5-{4-amino-3-[(2-hydroxyethyl)sulfanyl]-1H-pyrazolo[3,4-d]pyrimidin-1-yl}-3-hydroxytetrahydrofuran-2-yl]methyl Sulfamate] | 100 to 500 | 50 | –
15 | CC(C)(C)c1ccc(Sc2nn([C@H]3C[C@H](O)[C@@H](COS(N)(=O)=O)O3)c3ncnc(N)c23)cc1 [Compound I-163, [(2R,3S,5R)-5-{4-amino-3-[(4-tert-butylphenyl)sulfanyl]-1H-pyrazolo[3,4-d]pyrimidin-1-yl}-3-hydroxytetrahydrofuran-2-yl]methyl sulfamate] | 50 to 100 | 58 | –
16 | Nc1ncnc2c1c(SC1CCC1)nn2[C@H]1C[C@H](O)[C@@H](COS(N)(=O)=O)O1 [Compound I-164, {(2R,3S,5R)-5-[4-amino-3-(cyclobutylsulfanyl)-1H-pyrazolo[3,4-d]pyrimidin-1-yl]-3-hydroxytetrahydrofuran-2-yl}methyl sulfamate] | 50 to 100 | 70 | –
17 | Nc1ncnc2c1c(SCC(F)F)nn2[C@H]1C[C@H](O)[C@@H](COS(N)(=O)=O)O1 [Compound I-165, [(2R,3S,5R)-5-{4-amino-3-[(2,2-difluoroethyl)sulfanyl]-1H-pyrazolo[3,4-d]pyrimidin-1-yl}-3-hydroxytetrahydrofuran-2-yl]methyl sulfamate] | 50 to 100 | 62 | –
18 | Nc1ncnc2c1c(Sc1ccc3ccccc3c1)nn2[C@H]1C[C@H](O)[C@@H](COS(N)(=O)=O)O1 [Compound I-166, {(2R,3S,5R)-5-[4-amino-3-(2-naphthylsulfanyl)-1H-pyrazolo[3,4-d]pyrimidin-1-yl]-3-hydroxytetrahydrofuran-2-yl}methyl sulfamate] | 100 to 500 | 50 | –
19 | Nc1ncnc2c1c(SC1CC1)nn2[C@H]1C[C@H](O)[C@@H](COS(N)(=O)=O)O1 [Compound I-167, {(2R,3S,5R)-5-[4-amino-3-(cyclopropylsulfanyl)-1H-pyrazolo[3,4-d]pyrimidin-1-yl]-3-hydroxytetrahydrofuran-2-yl}methyl sulfamate] | 50 to 100 | 68 | –
20 | Nc1ncnc2c1c(Sc1ccc3c(c1)OCC3)nn2[C@H]1C[C@H](O)[C@@H](COS(N)(=O)=O)O1 [Compound I-168, {(2R,3S,5R)-5-[4-amino-3-(2,3-dihydro-1-benzofuran-6-ylsulfanyl)-1H-pyrazolo[3,4-d]pyrimidin-1-yl]-3-hydroxytetrahydrofuran-2-yl}methyl sulfamate] | 20 to 50 | 77 | –
21 | Nc1ncnc2c1c(SC(F)F)nn2[C@H]1C[C@H](O)[C@@H](COS(N)(=O)=O)O1 [Compound I-169, [(2R,3S,5R)-5-{4-amino-3-[(difluoromethyl)sulfanyl]-1H-pyrazolo[3,4-d]pyrimidin-1-yl}-3-hydroxytetrahydrofuran-2-yl]methyl sulfamate] | 50 to 100 | 57 | –
22 | Nc1ncnc2c1c(Sc1c[nH]c3ccccc13)nn2[C@H]1C[C@H](O)[C@@H](COS(N)(=O)=O)O1 [Compound I-170, {(2R,3S,5R)-5-[4-amino-3-(1H-indol-3-ylsulfanyl)-1H-pyrazolo[3,4-d]pyrimidin-1-yl]-3-hydroxytetrahydrofuran-2-yl}methyl sulfamate] | 100 to 500 | 50 | –
23 | Nc1ncnc2c1c(C(F)(F)F)nn2[C@H]1C[C@H](O)[C@@H](COS(N)(=O)=O)O1 [Compound I-171, {(2R,3S,5R)-5-[4-amino-3-(trifluoromethyl)-1H-pyrazolo[3,4-d]pyrimidin-1-yl]-3-hydroxytetrahydrofuran-2-yl}methyl Sulfamate] | 100 to 500 | 48 | –
24 | CCSc1nn([C@H]2C[C@H](O)[C@@H](COS(N)(=O)=O)O2)c2ncnc(N)c12 [Compound I-172, {(2R,3S,5R)-5-[4-amino-3-(ethylsulfanyl)-1H-pyrazolo[3,4-d]pyrimidin-1-yl]-3-hydroxytetrahydrofuran-2-yl}methyl Sulfamate] | 50 to 100 | 68 | –
25 | COc1ccc(F)c(Sc2nn([C@H]3C[C@H](O)[C@@H](COS(N)(=O)=O)O3)c3ncnc(N)c23)c1 [Compound I-173, [(2R,3S,5R)-5-{4-amino-3-[(2-fluoro-5-methoxyphenyl)sulfanyl]-1H-pyrazolo[3,4-d]pyrimidin-1-yl}-3-hydroxytetrahydrofuran-2-yl]methyl sulfamate] | 20 to 50 | 81 | –
